We go through 23 compounds from ChEMBL document CHEMBL1127453, “Benzimidazole ribonucleosides: design, synthesis, and antiviral activity of certain 2-(alkylthio)- and 2-(benzylthio)-5,6-dichloro-1-(beta-D-ribofuranosyl)benzimidazoles” (J Med Chem, 1994).

In one assay the test system is Human alphaherpesvirus 1. Description: Tested for anti-viral activity against Herpes simplex virus type-1 using ELISA. Type of assay: functional, organism-based. (An ELISA detects its analyte on a solid surface through an enzyme-linked reagent.)
Another assay relates to HFF cells (Homo sapiens). Description: Tested for the visual cytotoxicity on HFF cells at the time of human cytomegalovirus (HCMV) plaque enumeration.
The subject of assay [1] is Human betaherpesvirus 5. In words: Activity against human cytomegalovirus (HCMV) using plaque reduction assay. The class given is functional, organism-based. (Plaques are areas of infected cells; plaque reduction assays count them against a control.)
In another assay the test system is KB. Description: The inhibition of KB cell growth was determined. Type of assay: functional, cell-based. The following applies: Homo sapiens.
Assay [2] relates to Human betaherpesvirus 5. Description: Tested for the activity against human cytomegalovirus (HCMV) using yield reduction assay. Type of assay: functional.

Where only a bound is given, the exact number is not on record here.

As usually defined, the IC50 is the concentration at which inhibition is half-maximal. Regarding `OC[C@H]1OC(n2c(SCc3cccc(C(F)(F)F)c3)nc3cc(Cl)c(Cl)cc32)[C@H](O)[C@@H]1O` (some centres not stated), the IC50 in the assay with Human alphaherpesvirus 1 was found to be 40 µM; in the assay on HFF cells (Homo sapiens), 32 µM; with Human betaherpesvirus 5 [1] it was 40 µM; in the assay on KB, 15 µM.
Turning to `OC[C@@H]1O[C@@H](n2c(S)nc3cc(Cl)c(Cl)cc32)[C@H](O)[C@@H]1O`, the results for the IC50 in the assay with HFF cells (Homo sapiens) and with Human betaherpesvirus 5 [1] were 100 µM and greater than 100 µM, respectively.
Taken in the same sequence, the figures for `O=C(O)P(=O)(O)O` [FOSCARNET] were greater than 100 µM and 39 µM.
As for `COc1ccc(CSc2nc3cc(Cl)c(Cl)cc3n2C2O[C@H](CO)[C@@H](O)[C@H]2O)cc1` (some centres not stated), the IC50 in the assay with Human alphaherpesvirus 1 was greater than 100 µM; in the assay with HFF cells (Homo sapiens), 66 µM; in the assay on Human betaherpesvirus 5 [1] it was 40 µM; with KB, 41 µM.
What is called IC90 is the point of the concentration-response curve where the effect stands at 90%. Higher therefore signals weaker potency. With `OC[C@H]1O[C@@H](n2cnc3cc(Cl)c(Cl)cc32)[C@H](O)[C@@H]1O` [DICHLORORIBOBENZIMIDAZOLE], the IC50 in the assay on Human alphaherpesvirus 1 stood at 30 µM; with HFF cells (Homo sapiens), 24 µM; with Human betaherpesvirus 5 [1] it was 42 µM; in the assay on KB it was 100 µM. The IC90 with Human betaherpesvirus 5 [2] is 19 µM.
For `Nc1nc2c(ncn2COCCO)c(=O)[nH]1` [ACYCLOVIR], the IC50 was 1.7 µM with Human alphaherpesvirus 1, greater than 100 µM with HFF cells (Homo sapiens), 86 µM with Human betaherpesvirus 5 [1] and greater than 100 µM with KB. The 90% effect level with Human betaherpesvirus 5 [2] (IC90) was put at 85 µM.
On to `C#CCSc1nc2cc(Cl)c(Cl)cc2n1C1O[C@H](CO)[C@@H](O)[C@H]1O` (some centres not stated), for which the IC50 in the assay on Human alphaherpesvirus 1 was 100 µM; in the assay on HFF cells (Homo sapiens), 100 µM; in the assay with Human betaherpesvirus 5 [1] it was 25 µM; in the assay on KB it was 60 µM.
On to `OC[C@H]1OC(n2c(SCc3ccc(F)cc3)nc3cc(Cl)c(Cl)cc32)[C@H](O)[C@@H]1O` (some centres not stated), for which the figures for the IC50 in the assay with Human alphaherpesvirus 1, in the assay with HFF cells (Homo sapiens) and with Human betaherpesvirus 5 [1] were greater than 30 µM, 21 µM and 30 µM, respectively.
`OC[C@H]1OC(n2c(SCc3ccc(Cl)c(Cl)c3)nc3cc(Cl)c(Cl)cc32)[C@H](O)[C@@H]1O` (some centres not stated): the values for the IC50 in the assay with Human alphaherpesvirus 1, in the assay with HFF cells (Homo sapiens) and with Human betaherpesvirus 5 [1] were greater than 30 µM, 32 µM and 28 µM, respectively.
For `O=[N+]([O-])c1ccc(CSc2nc3cc(Cl)c(Cl)cc3n2C2O[C@H](CO)[C@@H](O)[C@H]2O)cc1` (some centres not stated), the IC50 in the assay with Human alphaherpesvirus 1 was found to be 40 µM; in the assay on HFF cells (Homo sapiens), 32 µM; in the assay with Human betaherpesvirus 5 [1], 40 µM; in the assay with KB, 30 µM.
`C=CCSc1nc2cc(Cl)c(Cl)cc2n1C1O[C@H](CO)[C@@H](O)[C@H]1O` (some centres not stated): the IC50 in the assay on Human alphaherpesvirus 1 is greater than 100 µM; with HFF cells (Homo sapiens) it was 24 µM; in the assay on Human betaherpesvirus 5 [1] it was greater than 100 µM; in the assay on KB, 68 µM.
For `Cc1ccc(CSc2nc3cc(Cl)c(Cl)cc3n2C2O[C@H](CO)[C@@H](O)[C@H]2O)cc1` (some centres not stated), the IC50 in the assay with Human alphaherpesvirus 1 is greater than 30 µM; in the assay with HFF cells (Homo sapiens) it was 32 µM; in the assay with Human betaherpesvirus 5 [1], 30 µM.
Take `OC[C@H]1OC(n2c(SCc3ccc(Cl)cc3)nc3cc(Cl)c(Cl)cc32)[C@H](O)[C@@H]1O` (some centres not stated): the IC50 in the assay with Human alphaherpesvirus 1 is greater than 30 µM; with HFF cells (Homo sapiens), 100 µM; with Human betaherpesvirus 5 [1] it was greater than 100 µM.
With `OC[C@H]1OC(n2c(SCc3ccccc3Cl)nc3cc(Cl)c(Cl)cc32)[C@H](O)[C@@H]1O` (some centres not stated), the IC50 was 60 µM in the assay on Human alphaherpesvirus 1, 32 µM in the assay with HFF cells (Homo sapiens), 40 µM in the assay on Human betaherpesvirus 5 [1] and 30 µM in the assay with KB.
For `OC[C@H]1OC(n2c(SCc3cccc(Cl)c3)nc3cc(Cl)c(Cl)cc32)[C@H](O)[C@@H]1O` (some centres not stated), the IC50 in the assay with Human alphaherpesvirus 1 worked out at 70 µM; in the assay with HFF cells (Homo sapiens) it was 21 µM; in the assay with Human betaherpesvirus 5 [1] it was 25 µM; with KB, 19 µM.
As to `Cc1cccc(CSc2nc3cc(Cl)c(Cl)cc3n2C2O[C@H](CO)[C@@H](O)[C@H]2O)c1` (some centres not stated), the IC50 with Human alphaherpesvirus 1 came out at 38 µM; in the assay with HFF cells (Homo sapiens), 32 µM; in the assay on Human betaherpesvirus 5 [1] it was 40 µM; in the assay with KB, 30 µM.
The like results for `CC(C)(C)c1ccc(CSc2nc3cc(Cl)c(Cl)cc3n2C2O[C@H](CO)[C@@H](O)[C@H]2O)cc1` (some centres not stated) were, in that order, 20 µM, 32 µM, 20 µM and 50 µM.
`O=[N+]([O-])c1cccc(CSc2nc3cc(Cl)c(Cl)cc3n2C2O[C@H](CO)[C@@H](O)[C@H]2O)c1` (some centres not stated): the IC50 with Human alphaherpesvirus 1 amounted to 50 µM; in the assay with HFF cells (Homo sapiens), 32 µM; in the assay with Human betaherpesvirus 5 [1], 40 µM; in the assay on KB it was 25 µM.
As to `Nc1nc2c(ncn2COC(CO)CO)c(=O)[nH]1` [GANCICLOVIR], the IC50 with HFF cells (Homo sapiens) was greater than 100 µM; with Human betaherpesvirus 5 [1] it was 7.4 µM. The compound also came in with an IC90 with Human betaherpesvirus 5 [2] of 1.6 µM.
`CS(=O)(=O)c1nc2cc(Cl)c(Cl)cc2n1C1O[C@H](CO)[C@@H](O)[C@H]1O` (some centres not stated): the IC50 in the assay with HFF cells (Homo sapiens) and in the assay on Human betaherpesvirus 5 [1] was 10 µM throughout.
For the compound `OC[C@H]1OC(n2c(SCc3ccc(Br)cc3)nc3cc(Cl)c(Cl)cc32)[C@H](O)[C@@H]1O` (some centres not stated), the IC50 came out at 30 µM in the assay with Human alphaherpesvirus 1, 32 µM in the assay with HFF cells (Homo sapiens), 30 µM with Human betaherpesvirus 5 [1] and 20 µM in the assay on KB.
In the case of `CSc1nc2cc(Cl)c(Cl)cc2n1[C@@H]1O[C@@H](CO)[C@@H](O)[C@H]1O`, the IC50 in the assay with HFF cells (Homo sapiens) and in the assay with Human betaherpesvirus 5 [1] was greater than 100 µM in each case.
For the compound `N#CCSc1nc2cc(Cl)c(Cl)cc2n1C1O[C@H](CO)[C@@H](O)[C@H]1O` (some centres not stated), the IC50 was greater than 100 µM in the assay on Human alphaherpesvirus 1, 100 µM in the assay with HFF cells (Homo sapiens), 30 µM in the assay on Human betaherpesvirus 5 [1] and greater than 100 µM in the assay on KB. Besides, the 90% effect level in the assay on Human betaherpesvirus 5 [2] (IC90) was put at 10 µM.
